# Where “and” joins values, the source holds several entries; their conditions need not be identical. Identical values can stand only once.
# Experiments:
# [1] = system: Aβ25-35 mouse model of Alzheimer's disease; experiment: Spontaneous alternation in the Y-maze, Aβ25-35 mouse model; assay type: in vivo
# Protocol: The compound efficacy was evaluated 7 days after the peptide administration on the attenuation of the Aβ25-35-induced learning deficits (spatial working memory using the spontaneous alternation in the Y-maze test, and contextual long-term memory using the passive avoidance test).
# The mice were tested 7 days post injection or at the indicated time points.
# (§1) In Experiment 2, twelve mice per experimental group were administered Sc.Aβ or Aβ25-35-amyloid peptide on day 0 by i.c.v. injection. […] Animals were tested at day 7 and later.
# The synergy/additivity/antagonism was evaluated by calculating the combination index. […] Animals were then tested at day 7 and later.
# Animals were tested at day 7 and later.
# (§2) For each of Experiments 1-4, on day 7, all animals were tested for the spontaneous alternation performance in the Y-maze test, an index of spatial working memory. On day 8 and 9, the contextual long-term memory of the animals was assessed using the step-through type passive avoidance procedure. On day 9, immediately after the retention session, animals were sacrificed by decapitation and the hippocampus and cortex dissected out. Lipid peroxidation was analyzed in the hippocampus, whereas neuroinflammation, apoptosis, amyloid burden and hyperphosphorylation of tau protein were analyzed in cortex.
# The homogeneous oligomeric preparation of Aβ25-35 peptide was performed according to the AMYLGEN's own procedure. Each mouse was anesthetized with isoflurane 2.5% and injected i.c.v. with Aβ25-35 peptide (9 nmol/mouse) or Sc.Aβ peptide (9 nmol/mouse), in a final volume of 3 μl/mouse, according to the previously described method (Maurice T, et al. (1996). Brain Res. 706(2): 181-193, Maurice T, et al. (1998) Neuroscience 83(2): 413-428, Meunier J, et al. (2006) British J. Pharmacol. 149(8): 998-1012, Villard V, et al. (2009) Neuropsychopharmacology 34(6): 1552-1566, Villard V, et al. (2011) J. Pharmacol. Sci. 115(3): 279-292).
# Animals: Male Swiss mice, 6 weeks old and weighing 30-35 g, from JANVIER (Saint Berthevin, France), were kept for housing and experiments took place within the animal facility building of the University of Montpellier 2 (CECEMA, Office of Veterinary Services agreement #B-34-172-23). Animals were housed in groups with access to food and water ad libitum, except during behavioral experiments. They were kept in a temperature and humidity controlled animal facility on a 12 h/12 h light/dark cycle (lights off at 07:00 pm). Mice were numbered by marking their tail using permanent markers. All animal procedures were conducted in strict adherence to the European Union directive of Sep. 22, 2010 (2010/63/UE). Diagnostic summary reports of JANVIER were annexed to the study report.
# Spontaneous alternation performance: Immediate working memory performance was assessed by recording spontaneous alternation behavior during a single session in a Y-maze as described previously (Itoh J, et al. (1993) Eur J Pharmacol 236(3): 341-345; Hiramatsu M and Inoue K (1999) Br J Pharmacol 127(3): 655-660). The Y-maze is made of grey polyvinylchloride. Each arm of the Y-maze was 40 cm long, 3 cm wide, and 13 cm high at the bottom, 10 cm wide at the top, and converging at an equal angle. Each mouse was placed at the end of one arm and allowed to move freely through the maze during an 8 min session. The series of arm entries, including possible returns into the same arm, was checked visually. An alternation was defined as entries into all three arms on consecutive occasions. The number of maximum alternations is therefore the total number of arm entries minus two and the percentage of alternation was calculated as (actual alternations/maximum alternations)×100. Parameters included the percentage of alternation (memory index) and total number of arm entries (exploration index).
# GFAP = experiment: ELISA of cortical GFAP, Aβ25-35 mouse model; assay type: in vivo; settings: Experiment 2, post-treatment, 1 mg/kg
# Protocol: as §1, §2
# Enzyme-linked immunosorbant assay (ELISA) assays: Contents in GFAP, Caspase 12, Amyloid-beta 1-40, Amyloid-beta 1-42, Total Tau, and pTau on Ser199 were analyzed by using commercial ELISA assay kit. • GFAP: Supplier: USCNK #Ref: SEA068Mu • Total Tau: Supplier: Novex #Ref: KMB7011 • pTau (S199): Supplier: Novex #Ref: KMB7041 • Amyloid beta 1-40: Supplier: Novex #Ref: KMB3481 • Amyloid beta 1-42: Supplier: Novex #Ref: KMB3441 • Caspase-12: Supplier: LSBio #Ref: LS-F11023 • BAX: Supplier: Euromedex#Ref: SEB343Mu • BCL2: Supplier: Euromedex #Ref: SEA778Mu […]
# [2] = system: sigma-1 receptor / BiP complex; experiment: Dissociation of BiP from sigma-1 receptor in CHO cells; assay type: cell-based; settings: 1 μM and 10 μM, 30 min
# Protocol: CHO cells were grown in a 6-well plates and treated with the compounds in culture medium at 37° C. for 30 min at 1 μM and 10 μM final concentration. The reaction was stopped by medium removal and adding 3 mL PBS at 37° C. CHO cells were harvested and suspended in 50 mM HEPES (pH7.4) followed by cross-linking with 50 μg/ml of dithio (bis) succinimidyl propionate (Thermo Fisher Scientific, Waltham, Mass.) for 30 min at 4° C. The reaction was stopped by adding Tris-HCl (pH 8.8, final 50 mM). Fifteen minutes after incubation on ice, cells were lysed with RIPA buffer [50 mM Tris (pH7.4), 150 mM NaCl, 1% Triton X-100, 0.3% sodium deoxycholate, 0.1% SDS, protease inhibitor cocktail (Roche Complete)]. After centrifugation at 12,000 g, 1 min, the supernatant was incubated overnight at 4° C. with Sig-1R antibody (Abcam). The cell lysate was incubated with Sepharose protein-A (Invitrogen) for 90 min. After centrifugation at 12,000 g, 1 min, the supernatant was discarded and the pellet was washed in 0.5 mL RIPA buffer. After a second centrifugation at 12,000 g, 20 min, the supernatant was discarded and the pellet was washed in 0.5 mL 2× Sample buffer/bMCE buffer. Following a third centrifugation at 12,000 g, 1 min, the supernatant was analysed by ELISA assay, according to the manufacturer's protocol (USCNK #SEC343Mu).
# sigma-1R = settings: read-out: IC50 / affinity for sigma-1R; cited from earlier work
# [3] = system: gerbil model of global cerebral ischemia; settings: cited from earlier work
smiles,measurement,setting,value
"CCC(C/C=C/c1ccccc1)(c1ccccc1)N(C)CC1CC1 (single isomer, unassigned; (+)) [igmesine, (+)-(E)-N-(cyclopropylmethyl)-N-methyl-3,6-diphenylhex-5-en-3-amine]",prevention of Aβ25-35-induced spontaneous alternation deficits,"[1]; Experiment 1, i.p. 20 min before Aβ25-35, 0.1, 0.3, 1 mg/kg",dose-dependently prevented
same,prevention of Aβ25-35-induced spontaneous alternation deficits,"[1]; Experiment 2, post-treatment i.p. day 1 to day 6",prevented the Aβ25-35-induced deficits at the highest doses tested
same,"highest sub-active dose, spontaneous alternation","[1]; Experiment 3, i.p.",0.1 mg/kg
same,cortical GFAP elevation,GFAP,fully normalized
same,dissociation of BiP from sigma-1 receptor,[2],produced the dissociation of BiP from sigma-1 receptor in a dose-dependent manner
same,IC50,sigma-1R,39 ± 8 nM
same,"effective doses, neuroprotective effects",[3],50 mg/kg and 75 mg/kg and 100 mg/kg
